In patent publication US9687432B2, “Antimicrobial bispyridine amine compositions and uses” (LONZA INC., priority 2012, dated 2017):
Counter-ions that a name gives are not always drawn.

Key:
[1] = test system: Aspergillus niger (16404); experiment: Minimum Inhibitory Concentration (MIC) test, 96-well microtiter plate; format: cell-based; settings: 48 hrs at 36° C., Sabouraud Dextrose Broth
Procedure: (§1) MICs for the organisms were determined using a standard 96-well microtiter plate assay in Tryptic Soy Broth (TSB) or Sabouraud Dextrose Broth (SDB). A stock solution (2500 ppm) of Octenidine distearate was prepared in methanol and stock solutions (2500 ppm) of Octenidine dihydrochloride and PHMB were prepared in absolute ethanol. […] Fungal inocula were grown up on Sabouraud Dextrose Agar plates (yeast) or Potato Dextrose Agar plates (mold) and mold spores and yeast cells were adjusted to approximately 100,000 per milliliter in Sabouraud Dextrose Broth (pH 5.6). Bacterial and fungal cultures were used to inoculate the serially diluted antimicrobials in the 96 well microplate and the plate was then incubated for 48 hrs at 36° C. The lowest concentration of test compound inhibiting growth at 48 hrs. (as determined by visual inspection) was recorded as the Minimum Inhibitory Concentration (MIC)

[2] = test system: Aureobasidium pullulans (9348); experiment: as above; format: cell-based; settings: 48 hrs at 36° C., Sabouraud Dextrose Broth
Procedure: as §1

Bacillus subtilus (6633) = experiment: as above; format: cell-based; settings: 48 hrs at 36° C., visual inspection
Procedure: as §1

Candida albicans (10231) = experiment: as above; format: cell-based; settings: 48 hrs at 36° C., Sabouraud Dextrose Broth
Procedure: as §1

[3] = test system: Enterobacter gergoviae (33028); experiment: as above; format: cell-based; settings: 48 hrs at 36° C., visual inspection
Procedure: as §1

[4] = test system: Enterococcus hirae (8043); experiment: as above; format: cell-based; settings: 48 hrs at 36° C., visual inspection
Procedure: as §1

Escherichia coli (10536) = experiment: as above; format: cell-based; settings: 48 hrs at 36° C., visual inspection
Procedure: as §1

[5] = test system: Gliocladium virens (9645); experiment: as above; format: cell-based; settings: 48 hrs at 36° C., Sabouraud Dextrose Broth
Procedure: as §1

[6] = test system: Klebsiella pneumoniae (4352); experiment: as above; format: cell-based; settings: 48 hrs at 36° C., visual inspection
Procedure: as §1

LB penicillium sp. = experiment: as above; format: cell-based; settings: 48 hrs at 36° C., Sabouraud Dextrose Broth
Procedure: as §1

Paecilomyces sp. = experiment: as above; format: cell-based; settings: 48 hrs at 36° C., Sabouraud Dextrose Broth
Procedure: as §1

[7] = test system: Penicillium pinophilium (11797); experiment: as above; format: cell-based; settings: 48 hrs at 36° C., Sabouraud Dextrose Broth
Procedure: as §1

[8] = test system: Pseudomonas aeruginosa (15442); experiment: as above; format: cell-based; settings: 48 hrs at 36° C., visual inspection
Procedure: as §1

[9] = test system: Pseudomonas aeruginosa (9027); experiment: as above; format: cell-based; settings: 48 hrs at 36° C., visual inspection
Procedure: as §1

[10] = test system: Staphylococcus aureus (6538); experiment: as above; format: cell-based; settings: 48 hrs at 36° C., visual inspection
Procedure: as §1

[11] = test system: Bacillus licheniformis (14580); experiment: MIC test against skin microorganisms; format: cell-based; settings: 48 hrs at 36° C., two different sets
Procedure: (§2) MICs for the organisms were determined using a standard 96-well microtiter plate assay in Trypic Soy Broth (TSB). […] Bacteria were grown in Tryptic Soy Broth or Brain Heart Infusion (E. hirae) for 24 hrs and were adjusted to one million cells per milliliter in same type of broth. Following incubation (48 hrs at 36° C.), the lowest concentration of test compound inhibiting growth was recorded as the Minimum Inhibitory Concentration (MIC). The actives were serially diluted and tested at final concentrations ranging from 156.3-0.61 ppm. MIC was run for two different sets.
(§3) Bacteria were grown overnight in Tryptic Soy Brother (TSB) or Brain Heart Infusion (BHI) and were adjusted to approximately 1×10^6 colony forming units per ml (cfu/ml) and used to inoculate the wells. Final bacterial concentration in the test wells was 5×10^5 cfu/ml. For Corynebacterium spp, TSB was used for the first set and BHI for the second set. Inoculated microtiter plates were incubated at 36° C. for 48 hours.
(§4) The lowest concentration of test compound inhibiting growth was recorded as the minimum inhibitory concentration.

[12] = test system: Corynebacterium minutissimum (23348); experiment: MIC test against skin microorganisms; format: cell-based; settings: 48 hrs at 36° C., TSB first set, BHI second set
Procedure: as §2, §3, §4

[13] = test system: Corynebacterium xerosis (373); experiment: MIC test against skin microorganisms; format: cell-based; settings: 48 hrs at 36° C., TSB first set, BHI second set
Procedure: as §2, §3, §4

[14] = test system: Staphylococcus epidermidis (12228); experiment: MIC test against skin microorganisms; format: cell-based; settings: 48 hrs at 36° C., two different sets
Procedure: as §2, §3, §4

[15] = test system: Staphylococcus haemolyticus (29970); experiment: MIC test against skin microorganisms; format: cell-based; settings: 48 hrs at 36° C., two different sets
Procedure: as §2, §3, §4

[16] = test system: mixed pool of bacteria (Staphylococcus epidermis, Corynebacterium minutissimum, Staphylococcus haemolyticus, Corynebacterium xerosis, Micrococcus luteus) on …; experiment: Control of growth of skin microorganisms on pig skin; format: cell-based, skin bacteria on pig skin; settings: 200 ppm in ethanol, 100 μl on pig skin, mixed bacterial pool, 35° C., 8 hour time period
Procedure: To further investigate the potential of the bispyridine amine compounds of the present invention for use as antimicrobial active ingredients in personal care products and cosmetics, the efficacy of octenidine distearate in controlling growth of skin microorganisms compared to Cosmocil® S was evaluated using different skin mimics. Testing was performed using pig skin. Although alternatives, such as VITRO-SKIN®, offered a less variable test matrix, it was decided that testing on pig skin was a better model for this application, as the pig skin allowed for actual growth of bacteria on the surface, not merely the survival of bacteria on the surface, providing more representative user skin conditions. The typical skin microorganisms Staphylococcus epidermis (ATCC 12228), Corynebacterium minutissimum (ATCC 23348), Staphylococcus haemolyticus (ATCC 29970), Corynebacterium xerosis (ATCC 373), and Micrococcus luteus (ATCC 4698), were grown in Tryptic Soy Broth (TSB) at 35-37° C. for approximately 24 hours. Each bacterial suspension was diluted 1:50 in TSB and then inoculum was prepared by mixing equal volume of each bacterial suspension. The final inoculum was plated in TSA to get an accurate count and used as a mixed pool of bacteria. […] Plates were incubated at 35-37° C. for 48 hours before the colonies were counted, and the mean values calculated.

In the case of `CCCCCCCCN=c1ccn(CCCCCCCCCCn2ccc(=NCCCCCCCC)cc2)cc1` [Octenidine HCl, Octenidine dihydrochloride], the MIC [1] is reported as 1.22 µg/mL, the MIC [2] is reported as 0.61 µg/mL and the MIC (Bacillus subtilus (6633)) is reported as 0.61 µg/mL. It also gave an MIC (Candida albicans (10231)) of 0.31 µg/mL, an MIC ([3]; Pluralibacter gergoviae) of 1.22 µg/mL and an MIC [4] of 0.61 µg/mL. It also gave an MIC (Escherichia coli (10536)) of 0.61 µg/mL, an MIC ([5]; Trichoderma virens) of under 0.31 µg/mL and an MIC [6] of 0.61 µg/mL. For the same compound, the MIC (LB penicillium sp.) was 0.61 µg/mL, the MIC (Paecilomyces sp.) was 78.1 µg/mL and the MIC [7] was under 0.31 µg/mL. It also gave an MIC [8] of 1.22 µg/mL, an MIC [9] of 1.22 µg/mL and an MIC [10] of 0.61 µg/mL.

In the case of `CCCCCCCCCCCCCCCCCC(=O)O.CCCCCCCCCCCCCCCCCC(=O)O.CCCCCCCCN=c1ccn(CCCCCCCCCCn2ccc(=NCCCCCCCC)cc2)cc1` [Octenidine distearate, octenidine distearate], the “Minimum Inhibitory Concentration (MIC)” value [1] is reported as 9.77 ppm, the “Minimum Inhibitory Concentration (MIC)” value [2] is reported as 1.22 ppm and the “Minimum Inhibitory Concentration (MIC)” value (Bacillus subtilus (6633)) is reported as 1.22 ppm. The “Minimum Inhibitory Concentration (MIC)” value (Candida albicans (10231)) was 0.61 ppm, the “Minimum Inhibitory Concentration (MIC)” value [3] was 4.88 ppm and the “Minimum Inhibitory Concentration (MIC)” value [4] was 4.88 ppm. The “Minimum Inhibitory Concentration (MIC)” value (Escherichia coli (10536)) was 2.44 ppm, the “Minimum Inhibitory Concentration (MIC)” value [5] was 2.44 ppm and the “Minimum Inhibitory Concentration (MIC)” value [6] was 2.44 ppm. The “Minimum Inhibitory Concentration (MIC)” value (LB penicillium sp.) was 2.44 ppm, the “Minimum Inhibitory Concentration (MIC)” value (Paecilomyces sp.) was 156.25 ppm and the “Minimum Inhibitory Concentration (MIC)” value [7] was 2.44 ppm. For the same compound, the “Minimum Inhibitory Concentration (MIC)” value [8] was 19.53 ppm, the “Minimum Inhibitory Concentration (MIC)” value [9] was 4.88 ppm and the “Minimum Inhibitory Concentration (MIC)” value [10] was 2.44 ppm. For the same compound, the “MIC (ppm)” value [11] was 9.76-19.53 ppm, the “MIC (ppm)” value [12] was 2.44-39.06 ppm and the “MIC (ppm)” value [13] was 39.06 ppm. The “MIC (ppm)” value [14] was 4.88-9.76 ppm, the “MIC (ppm)” value [15] was 4.88-9.76 ppm and the “efficacy in controlling growth of skin microorganisms (CFU/cm^2 of skin, FIG. 1)” value [16] was “equally as effective as Cosmocil® S”.
